Data from patent publication US20260335272A1, “SAGERINIC ACID AND COMPOSITIONS CONTAINING SAME, FOR USE IN THE PREVENTION AND/OR TREATMENT OF SENESCENCE-RELATED DISORDERS IN A HUMAN OR ANIMAL” (A2P SCIENCES, priority 2022, published 2026).

Tests used:
[1] = Protein deglycating activity: release of benzoic acid from 1-phenyl-1,2-propanedione (PPD), HPLC; details: for Activity (protein deglycating activity): 0.25% (w/V) product, 0.375% (w/V) PPD, 37 °C, 24 hours, phosphate buffer pH 7.4-methanol 50/50, benzoic acid by HPLC at 229 nm
Protocol: The test products in 0.25% (w/V) solution are left in contact with a 0.375% (w/V) solution of 1-phenyl-1,2-propanedione (PPD) for 24 hours at 37 °C. An HPLC dosing, at 229 nm after passage through an Ascentis® Express C18 column, was carried out at TO and again after 24 hours so as to determine the benzoic acid content. Calculating the percentage of pmol of benzoic acid/μmol of PPD in the reaction medium determines the activity of the deglycants.
Dissolve 0.178 g monopotassium phosphate and 0.955 g dibasic sodium phosphate dihydrate in 100 ml purified water. The pH is adjusted if necessary.
A mixture is made with 50 ml phosphate buffer pH 7.4 and 50 ml methanol.
A solution of exactly 0.375% (w/V) PPD is made in the mixture buffer phosphate pH 7.4—methanol (50/50).
A solution of approximately 0.25% (w/V) of the product to be tested is made in the mixture buffer phosphate pH 7.4—methanol (50/50).
Product to be tested: Alagebrium chloride (MedChem Express, ref. HY-106024B), Sagerinic acid (prepared according to example 5.1.).
A stock solution of approximately 0.08% (w/V) benzoic acid is made in ethyl alcohol. This solution is diluted 1:10 (V/V) in purified water (D).
(D) is then diluted 1:5, 2:5, 3:5 and 4:5 (V/V) in purified water. (D1, D2, D3 and D4).
A linear calibration line was established: area of the benzoic acid peak, with a retention time of 9.17 min and observed at 229 nm, as a function of the concentration in % (w/V).
(§1) A series of hermetically sealed pillboxes are filled with:
Stir after each addition.
0.05 ml is taken from each pillbox to measure the benzoic acid content at TO. The pillboxes are resealed and placed in an oven at 37 °C for a minimum of 21 to a maximum of 24 hours.
The same volume will be taken for dosing on leaving the oven.
The time at 37 °C must be exactly the same for the control and all the tests, so they are prepared as they go along.
The 0.05 ml samples are diluted 1:5 (V/V) in purified water, i.e. by adding 0.2 ml. […]
The % of pmol of benzoic acid/μmol of PPD in the reaction medium is calculated: • TT0×10000×100/122.12×12.655 […]

[2] = DPPH free radical elimination (anti-radical / oxidative stress effect); format: physicochemical; details: for Activity (elimination of DPPH free radical): antioxidant solution 0.0007% (ascorbic acid in ethyl alcohol, sagerinic acid in water), 0.15 ml in 4.5 ml, phosphate buffer pH 7, 5 min, OD at 519 nm
Protocol: The principle of the method for assessing the effect of sagerinic acid compared to ascorbic acid as a reference molecule is based on the elimination of a stable free radical, the 2,2-Diphenyl-1-picrylhydrazyl (DPPH Sigma Aldrich ref D9132).
Dissolve 0.177 g monopotassium phosphate and 0.730 g dibasic sodium phosphate dihydrate in 50 ml purified water. The pH is adjusted if necessary.
A solution of exactly 0.0027% (w/V) DPPH in methanol is made.
A solution of exactly 0.1% (w/V) ascorbic acid (Riedel-de-Haen, ref.33034) is made in ethyl alcohol. This solution is diluted to 0.0007% (V/V) in ethyl alcohol.
A solution of exactly 0.1% (w/V) sagerinic acid (prepared according to example 5.1.) is made in water. This solution is diluted to 0.0007% (V/V) in water.
as §1
For the sample and the blank: • After addition, stir for 5 min on a magnetic stirrer • Add 4 ml toluene • Stir for 30 seconds with a magnetic stirrer • Allow to settle for 20 seconds to 1 minute (if necessary) • Recover the organic phase from the top using an automatic pipette, taking care not to recover any aqueous phase • Read the OD of the organic phase using a spectrophotometer at 519 nm

SIRT1 = target: T1, SIRT1 (Homo sapiens, UniProt Q96EB6); assay: SIRT1 Inhibitor/Activator screening kit (ab283377), fluorimetric sirtuin-1 activation; format: biochemical; details: for Activity (activation of sirtuin-1): 2.28% (w/V) activator in DMSO diluted 1:250 in DTT buffer, 25 μl, 37 °C, 30-60 min, Ex/Em=400/505 nm
T1 construct: fluorogenic deacetylation assay
T1 sequence (Q96EB6 1-747): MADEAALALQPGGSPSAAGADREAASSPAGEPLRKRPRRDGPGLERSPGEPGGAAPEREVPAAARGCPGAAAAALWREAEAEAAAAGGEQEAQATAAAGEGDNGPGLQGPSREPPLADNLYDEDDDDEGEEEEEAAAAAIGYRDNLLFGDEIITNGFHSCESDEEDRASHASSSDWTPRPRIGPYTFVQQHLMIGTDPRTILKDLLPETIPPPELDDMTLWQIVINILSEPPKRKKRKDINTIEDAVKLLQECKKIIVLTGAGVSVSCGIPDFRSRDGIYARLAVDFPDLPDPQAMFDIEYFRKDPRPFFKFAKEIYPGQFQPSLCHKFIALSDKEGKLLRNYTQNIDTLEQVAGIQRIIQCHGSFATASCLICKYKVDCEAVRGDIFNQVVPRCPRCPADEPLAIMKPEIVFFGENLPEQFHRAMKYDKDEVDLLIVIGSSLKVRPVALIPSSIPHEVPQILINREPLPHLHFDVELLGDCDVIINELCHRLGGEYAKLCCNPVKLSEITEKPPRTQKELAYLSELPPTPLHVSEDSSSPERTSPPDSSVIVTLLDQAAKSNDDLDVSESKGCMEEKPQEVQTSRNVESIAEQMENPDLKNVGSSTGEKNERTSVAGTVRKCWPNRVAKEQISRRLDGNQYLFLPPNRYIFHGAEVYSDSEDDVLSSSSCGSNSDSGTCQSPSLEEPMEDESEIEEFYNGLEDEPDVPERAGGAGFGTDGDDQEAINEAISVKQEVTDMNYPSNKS
Text: The SIRT1 Inhibitor/Activator screening kit deacetylates the substrate with SIRT1, followed by cleavage of the deacetylated substrate to release the fluorescent group, which is detected by fluorimetry at Ex/Em=400/505 nm.
The SIRT1 activator enhances the SIRT1 activity resulting in a higher fluorescent signal compared to the control. This kit provides a rapid, simple, sensitive and reliable test, suitable for high-throughput screening of SIRT1 activators.
• Solutions of the kit: Reference ab283377 (Abeam) • Buffer • Substrate • SIRT1 • NAD • DTT • DMSO Réference 34869 (Honeywell Riedel-de-Haen)
A solution of exactly 2.28% (w/V) activator (resveratrol (Sigma Aldrich, ref.R5010) and sagerinic acid prepared according to example 5.1.) is made in DMSO. Dilute to 1:250 in the DTT buffer solution.
Preparation of the enzyme solution: Make the following additions to 3 separate wells:
• 1. To the SIRT1 enzyme solution wells, add: • 25 μl of undiluted activator solution (2.28% solution) in a well as activator control (AC) • 25 μl of DTT-free buffer in a well as an enzyme control (EC) • 25 μl of diluted activator solution as assay (S) • 2. In another well, add 50 μl of DTT-free buffer as a blank control (without enzyme). • 3. Mix well and incubate the plaque for 5 minutes at 37 °C
Preparation of the substrate: After incubation, make the following additions to each well:
Mix and incubate at 37 °C for 30-60 min.
Mix well and incubate for 10 min at 37 °C, protected from light.
Read the fluorescence (Ex/Em=400/505 nm).
The activation of sirtuin-1 by sagerinic acid was compared with that of resveratrol as a reference molecule.

Collagenase = Collagenase activity kit (Sigma Aldrich MAK293, FALGPA substrate), anti-collagenase activity; format: biochemical; details: vs reference molecule hamamelitannin
Protocol: A collagenase activity analysis kit (Sigma Aldrich MAK293) is used. The kit allows to screen collagenase inhibitors by measuring collagenase activity using a synthetic peptide (FALGPA) that mimics the structure of the collagen.
• Solutions of the kit: Reference MAK293-1KT (Sigma Aldrich) • Collagenase buffer (MAK293A-KC) • Collagenase solution (MAK293B-KC) • Collagenase substrate (MAK293C-KC) • Pharmethyl 96° ethyl alcohol, Reference 11371014 (Cristalco) • Purified water
A solution is made of exactly 1% (w/V) hamamelitannin (Extrasynthesis ref. 0958) in ethyl alcohol.
A solution of exactly 1% (w/V) sagerinic acid (prepared according to example 5.1.) is made in purified water.
as §1
• After addition, stir quickly by hand • Place in an oven at 37 °C for 30 minutes • Add 1.6 mL of purified water. Mix well. • Read the DO: Sample against blank, spectrophotometer at 345 nm.
The anti-collagenase activity of sagerinic acid was compared with that of hamamelitannin as a reference molecule.
In absolute values: Y=[(DOBlank 2−DOTest)−(DOBlank 1−DOcontrol)]/(DOBlank 1−DOcontrol)]×100

For Cc1sc[n+](CC(=O)c2ccccc2)c1C [Alagebrium, reference compound], the “Activity (protein deglycating activity)” value [1] was 28.79 arbitrary dimensionless unit.
In the case of O=C1O[C@H]([C@@H](O)CO)C(O)=C1O [Ascorbic acid, ascorbic acid, reference compound], the “Activity (elimination of DPPH free radical)” value [2] is reported as 5.26 arbitrary dimensionless unit.
With Oc1ccc(C=Cc2cc(O)cc(O)c2)cc1 [Resveratrol, resveratrol, reference compound] the “Activity (activation of sirtuin-1)” value (SIRT1) was 80.54 arbitrary dimensionless unit.
In the case of O=C(O[C@H](Cc1ccc(O)c(O)c1)C(=O)O)C1C(c2ccc(O)c(O)c2)C(C(=O)O[C@H](Cc2ccc(O)c(O)c2)C(=O)O)C1c1ccc(O)c(O)c1 (stereo partly shown) [Sagerinic acid], the “effect on sirtuin activation (in words)” value (SIRT1) is reported as “good effect on sirtuin activation”, the “Activity (activation of sirtuin-1)” value (SIRT1) is reported as 26.56 arbitrary dimensionless unit and the “inhibitory effect on proteases (collagenases) relative to hamamelitannin” value (Collagenase) is reported as “more than 2 times”. For the same compound, the “protein deglycating activity (in words)” value [1] was “good protein deglycating activity”, the “Activity (protein deglycating activity)” value [1] was 16.78 arbitrary dimensionless unit and the “Activity (elimination of DPPH free radical)” value [2] was 9.70 arbitrary dimensionless unit. For the same compound, the “effect in eliminating free radicals relative to ascorbic acid” value ([2]; vs ascorbic acid) was “almost twice the effect of ascorbic acid”.
